Measurements reported in patent publication US6608032B1, “Medicinal compositions” (Takara Shuzo Co., Ltd., priority 1999, dated 2003).

Columns and labels:
cyclooxygenase 2 protein = experiment: LPS-induced cyclooxygenase 2 protein expression in RAW264.7 cells (Western blot); assay type: cell-based; conditions: 50 μl of 10 mM solution per 5 ml, added 0 or 6 hours before LPS
Procedure: (1) RAW264.7 cells (ATCC TIB 71) were suspended in Dulbecco's modified Eagle's medium (Bio Whittaker, 12-604F) containing 10% fetal calf serum (Gibco) at a concentration of 3×10^5 cells/ml. 5 ml of the suspension was added to each well of a 6-well microtiter plate and the plate was incubated at 37° C. overnight in the presence of 5% CO2. 50 μl of a solution containing agarobiose or agarohexaose at a concentration of 10 mM in water was added to the well. The plate was incubated for 0 or 6 hours. 50 μl of a solution containing lipopolysaccharide (LPS, Sigma, L-2012) at a concentration of 100 μg/ml in water was added to the well. The plate was incubated for additional 12 hours. The cells were recovered by detaching the cells from the plate using a scraper and suspended in phosphate buffered saline containing 1 μg/ml pepstatin A (Sigma, P5318), 1 μg/ml leupeptin (Sigma, L2884), 1 mM phenylmethylsulfonyl fluoride (Nacalai Tesque, 273-27), 10 mM ethylenediaminetetraacetic acid disodium salt and 0.1% Triton X-100. A supernatant obtained by centrifuging the suspension after freezing and thawing was used as a protein fraction. The content of protein in the protein fraction was determined using Micro BCA Protein Assay Reagent (a product of Pierce sold by Takara Shuzo, P7411). […]

α-glucosidase [1] = target: α-glucosidase (Rattus norvegicus, UniProt P23739); experiment: α-glucosidase inhibition, crude enzyme preparation from rat small intestine mucous membrane; assay type: biochemical
Procedure: (§1) (2) A crude enzyme preparation obtained from rat small intestine mucous membrane prepared according to the method as described in Arne Dahlqvist, Anal. Biochem., 7:18-25 (1964) was used to measure the activity of inhibiting α-glucosidase of agarotetraose or agarohexaose prepared in Referential Example 1 in vitro as follows.
(§2) For the enzymatic reaction, 80 μl of a solution of sucrose, maltose, treharose or soluble starch as a substrate in 10 mM phosphate buffer (pH 7.0) at a final concentration of 100 mM (0.5% in case of soluble starch) was added to 10 μl of a test sample solution appropriately diluted with the same buffer. 10 μl of the crude enzyme solution prepared from rat small intestine was added thereto. The mixture was reacted at 37° C. for 20 minutes. The enzymatic activity was determined as follows as the amount of glucose generated in the reaction mixture: 3 ml of a reagent for glucose measurement (Wako Pure Chemical Industries) was added to the reaction mixture, reaction was carried out at 37° C. for 5 minutes, and then the absorbance at 505 nm was measured. The inhibitory activity on the digestion of each substrate was expressed as a remaining activity (%) against the control, which was calculated based on the activity measured as described above for each of four different concentrations. The remaining activities (%) on the respective substrates in the presence of agarotetraose are shown in Table 2, whereas the remaining activities (%) on the respective substrates in the presence of agarohexaose are shown in Table 3.

α-glucosidase [2] = experiment: as above; assay type: biochemical
Procedure: as §1, §2

[3] = substrate Soluble starch, 0.2 mM
[4] = substrate Soluble starch, 0.5 mM
[5] = substrate Soluble starch, 1.0 mM
[6] = substrate Soluble starch, 2.0 mM

Sequence of α-glucosidase (Rattus norvegicus, UniProt P23739) (P23739 whole entry): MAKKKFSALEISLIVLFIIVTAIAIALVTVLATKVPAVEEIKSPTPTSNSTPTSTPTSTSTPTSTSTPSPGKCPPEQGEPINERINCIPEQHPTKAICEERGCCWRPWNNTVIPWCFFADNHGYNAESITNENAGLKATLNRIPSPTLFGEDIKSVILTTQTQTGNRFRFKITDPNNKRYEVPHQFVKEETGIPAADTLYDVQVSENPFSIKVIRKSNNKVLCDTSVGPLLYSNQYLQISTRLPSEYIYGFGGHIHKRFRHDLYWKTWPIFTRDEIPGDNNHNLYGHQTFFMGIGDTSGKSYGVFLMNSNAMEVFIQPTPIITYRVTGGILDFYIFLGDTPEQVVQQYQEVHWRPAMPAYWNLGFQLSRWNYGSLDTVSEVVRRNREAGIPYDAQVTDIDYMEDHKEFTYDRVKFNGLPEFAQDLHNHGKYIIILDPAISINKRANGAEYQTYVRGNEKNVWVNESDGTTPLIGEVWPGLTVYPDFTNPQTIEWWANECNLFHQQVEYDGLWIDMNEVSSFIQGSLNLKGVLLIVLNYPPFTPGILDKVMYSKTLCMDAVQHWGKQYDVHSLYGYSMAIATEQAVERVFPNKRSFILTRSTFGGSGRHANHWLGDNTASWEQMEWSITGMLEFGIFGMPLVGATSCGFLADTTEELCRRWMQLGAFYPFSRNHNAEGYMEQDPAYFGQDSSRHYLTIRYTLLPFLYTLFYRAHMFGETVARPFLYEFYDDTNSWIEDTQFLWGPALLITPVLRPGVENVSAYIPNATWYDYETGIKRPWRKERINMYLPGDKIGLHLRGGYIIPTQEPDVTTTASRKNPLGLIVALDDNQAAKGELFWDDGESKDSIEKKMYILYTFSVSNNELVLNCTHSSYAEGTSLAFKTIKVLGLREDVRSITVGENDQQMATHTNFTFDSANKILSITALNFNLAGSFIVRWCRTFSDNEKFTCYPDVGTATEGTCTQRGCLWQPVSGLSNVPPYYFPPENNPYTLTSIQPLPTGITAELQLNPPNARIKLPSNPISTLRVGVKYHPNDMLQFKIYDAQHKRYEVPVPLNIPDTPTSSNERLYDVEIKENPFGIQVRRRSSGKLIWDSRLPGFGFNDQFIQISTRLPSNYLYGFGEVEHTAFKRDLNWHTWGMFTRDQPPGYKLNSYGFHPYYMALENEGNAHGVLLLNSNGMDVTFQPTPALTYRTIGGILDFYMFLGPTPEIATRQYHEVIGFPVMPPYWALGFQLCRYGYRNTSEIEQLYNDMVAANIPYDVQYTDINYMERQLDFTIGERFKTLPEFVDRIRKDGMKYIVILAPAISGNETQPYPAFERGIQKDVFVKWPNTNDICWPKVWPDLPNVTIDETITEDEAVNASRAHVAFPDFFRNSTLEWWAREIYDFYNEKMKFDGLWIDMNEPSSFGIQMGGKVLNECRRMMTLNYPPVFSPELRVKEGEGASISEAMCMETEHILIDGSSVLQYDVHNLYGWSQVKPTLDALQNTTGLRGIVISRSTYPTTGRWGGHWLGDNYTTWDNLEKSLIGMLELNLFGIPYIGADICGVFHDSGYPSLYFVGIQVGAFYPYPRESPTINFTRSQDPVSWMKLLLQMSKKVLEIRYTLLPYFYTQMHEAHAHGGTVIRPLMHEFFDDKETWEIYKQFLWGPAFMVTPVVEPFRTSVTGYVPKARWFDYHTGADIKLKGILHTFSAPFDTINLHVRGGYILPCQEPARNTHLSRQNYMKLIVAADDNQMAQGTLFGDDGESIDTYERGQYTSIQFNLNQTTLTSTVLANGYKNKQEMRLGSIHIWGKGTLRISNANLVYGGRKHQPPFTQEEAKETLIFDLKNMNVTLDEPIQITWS

Structure (SMILES)	increase in cyclooxygenase 2 protein expression induced by LPS (cyclooxygenase 2 protein)	remaining activity at 200 µM (α-glucosidase [1]) [%]	remaining activity at 500 µM (α-glucosidase [1]) [%]	remaining activity at 1000 µM (α-glucosidase [1]) [%]	remaining activity at 2000 µM (α-glucosidase [1]) [%]	Remaining activity (%) (α-glucosidase [2]; substrate Maltose, 0.2 mM)	Remaining activity (%) (α-glucosidase [2]; substrate Maltose, 0.5 mM)	Remaining activity (%) (α-glucosidase [2]; substrate Maltose, 1.0 mM)	Remaining activity (%) (α-glucosidase [2]; substrate Maltose, 2.0 mM)	Remaining activity (%) (α-glucosidase [2]; [3])	Remaining activity (%) (α-glucosidase [2]; [4])	Remaining activity (%) (α-glucosidase [2]; [5])	Remaining activity (%) (α-glucosidase [2]; [6])	Remaining activity (%) (α-glucosidase [2]; substrate Trehalose, 0.2 mM)	Remaining activity (%) (α-glucosidase [2]; substrate Trehalose, 0.5 mM)	Remaining activity (%) (α-glucosidase [2]; substrate Trehalose, 1.0 mM)	Remaining activity (%) (α-glucosidase [2]; substrate Trehalose, 2.0 mM)
OCC1OC(OC2C3COC2C(O)C(OC2C(O)C(CO)OC(OC4C5COC4C(O)C(OC4C(O)C(CO)OC(OC6C7COC6C(O)C(O)O7)C4O)O5)C2O)O3)C(O)C(O)C1O (stereo not shown) [Agarohexaose, agarohexaose]	not suppressed	92	85	81	70	98	100	91	92	100	97	96	97	100	100	100	93
OC[C@H]1O[C@@H](O[C@H]2[C@H]3OC[C@@H]2OC(O)[C@H]3O)[C@H](O)[C@@H](O)[C@H]1O (mixture of isomers) [Agarobiose, agarobiose]	not suppressed																
OCC1OC(OC2C3COC2C(O)C(OC2C(O)C(CO)OC(OC4C5COC4C(O)C(O)O5)C2O)O3)C(O)C(O)C1O (stereo not shown) [Agarotetraose, agarotetraose]		92	85	83	72	97	95	100	98	100	96	97	91	100	100	100	93
